pKd: −log10 of the molar value. Entries after “also recorded” stand apart in the source; their conditions may differ. Like-named read-outs stand apart in the source and are kept apart here.
What was measured:
[1] = system: HeLa cells; assay: HeLa cell viability with PS48; format: cell-based, human; details: FIG. 39
[2] = molecular target: T1, dephosphorylated Aurora A kinase (Homo sapiens, UniProt O14965); assay: Isothermal titration calorimetry (ITC) binding to dephosphorylated Aurora A kinase
T1 construct: Codon-optimized Aurora A^122-403 in pET28a and untagged λPP in T7-7 plasmid were co-transformed in BL21(DE3) cells; inferred from pET28a and the NiNTA column) (cleaved yes); made in house; host or cells: E. coli BL21(DE3), co-expressed with lambda protein phosphatase
T1 sequence (O14965 122-403): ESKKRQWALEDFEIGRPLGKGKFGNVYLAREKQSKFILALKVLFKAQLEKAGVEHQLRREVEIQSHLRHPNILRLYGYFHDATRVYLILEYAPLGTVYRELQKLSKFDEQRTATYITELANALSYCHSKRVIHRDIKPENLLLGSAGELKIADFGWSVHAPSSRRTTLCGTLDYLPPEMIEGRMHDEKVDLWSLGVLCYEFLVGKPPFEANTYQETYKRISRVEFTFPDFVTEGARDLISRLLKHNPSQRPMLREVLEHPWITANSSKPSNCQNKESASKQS
Experimental: Titrations were carried out using Nano ITC isothermal titration calorimeter (TA Instruments) and analyzed via the NanoAnalyze software using the independent fit model. Injectant was added in 1 μl volume, every 180 s, with a constant stirring speed at 350 rpm and at 25° C. Prior to ITC titration, both protein and TPX2 or monobody were dialyzed/resuspended in ITC buffer (20 mM TrisHCl, 200 mM NaCl, 3% (vol/vol) glycerol, 1 mM TCEP, pH 7.50).

[3] = molecular target: T2, ATP-binding site of Aurora A kinase (Homo sapiens, UniProt O14965); assay: TNP-ATP fluorescence titration of dephosphorylated Aurora A kinase with or without PS48; details: FIGS. 24-26
T2 construct: Codon-optimized Aurora A^122-403 in pET28a and untagged λPP in T7-7 plasmid were co-transformed in BL21(DE3) cells; inferred from pET28a and the NiNTA column) (cleaved yes); made in house; host or cells: E. coli BL21(DE3), co-expressed with lambda protein phosphatase
T2 sequence (O14965 122-403): T1 sequence (O14965 122-403)
Experimental: TNP-ATP is excited at a wavelength of 479 nm and fluoresces at 500-600 nm. FIG. 26B is a plot showing an emission spectrum of TNP-ATP. FIG. 26C is a plot showing fluorescence spectroscopy of dephosphorylated Aurora A kinase incubated with varying amounts of TNP-ATP. FIG. 26D is a plot showing fluorescence spectroscopy of dephosphorylated Aurora A kinase and PS48 incubated with varying amounts of TNP-ATP. FIG. 26E is a plot showing fluorescence intensities measured during titration of TNP-ATP in the Aurora A kinase and PS48 sample and Aurora A kinase only sample. The dissociation constant of TNP-ATP binding to Aurora A kinase in the absence and presence of PS48 is shown at the bottom of FIG. 26E.

[4] = Stability of PS48 at very high concentrations; format: physicochemical
[5] = molecular target: T3, TPX2 binding site of Aurora A kinase (Homo sapiens, UniProt O14965); assay: NMR titration (1H-15N HSQC) of TPX2, Aurora A and PS48; details: FIGS. 27A-27C
T3 construct: Codon-optimized Aurora A^122-403 in pET28a and untagged λPP in T7-7 plasmid were co-transformed in BL21(DE3) cells; inferred from pET28a and the NiNTA column) (cleaved yes); made in house; host or cells: E. coli BL21(DE3) (Aurora A); TPX2 not described
T3 sequence (O14965 122-403): T1 sequence (O14965 122-403)
Experimental: FIGS. 27A-27C is a set of plots showing results of NMR titration showing that PS48 binds to the TPX2 binding site of Aurora A kinase. FIG. 27A is a plot showing ^1H-^15N heteronuclear single quantum coherence (HSQC) spectra of selected titration points (250 μM TPX2, 250 μM TPX2+100 μM Aurora A, and 250 μM TPX2+100 μM Aurora A+1.5 mM PS48). A magnified view showing separation of peaks is indicated by an arrow. FIG. 27B is a plot showing changes in chemical shift (Δδ) at 200 μM TPX2 and varying concentrations of Aurora A. FIG. 27C is a plot showing changes in chemical shift (Δδ) at 200 μM TPX2 and 100 μM Aurora A and varying concentrations of PS48.

pKd ([2]; Aurora A saturated with danusertib, FIGS. 3C-3D, read-out: Kd of PS48 binding to dephosphorylated Aurora A kinase): ~4.07
pKd ([2]; ITC, FIG. 3B, read-out: Kd of binding of PS48 to Aurora A kinase): ~4.34
stability of PS48 [4]: not stable
Compound: O=C(O)/C=C(/CCc1ccc(Cl)cc1)c1ccccc1 [PS48]
HeLa cell viability [1]: PS48-dose dependent; also recorded: decreased cell viability
effect of PS48 on the ATP binding site of Aurora A kinase (TNP-ATP binding) [3]: does not affect binding of TNP-ATP; also recorded: does not bind to the ATP binding site
binding site of PS48 on Aurora A kinase [5]: bound to the TPX2 binding site of Aurora A kinase
